{"source": "patent US4698350A", "about": "“1-ethyl-6-fluoro-1,4-dihydro- 7-(2,6-dimethyl-4-pyridinyl)-4-oxo-3-quinolinecarboxylic acid and antibacterial use thereof” (Sterling Drug Inc., priority 1984, dated 1987)", "experiment_in_all_cases": "In vitro antibacterial MIC/MBC test", "type_in_all_cases": "cell-based", "key": {"S. epidermidis 1-5-H": {"system": "S. epidermidis 1-5-H", "settings": "Staphylococcus epidermidis, 15H", "summary_of_the_method": "(§1)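 MIC: 2-fold dilutions, MHB or BHI+1% NHS (streptococci), ~1×10^4 cells/well (~1×10^5 cells/ml), 37° C./18-20 h, visible growth endpoint. MBC: wells subcultured to MHA or BHI agar+10% NHS, 37° C./18-20 h, no recognizable colony.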"}, "S. pyogenes (89)": {"system": "S. pyogenes (89)", "settings": "Streptococcus pyogenes", "summary_of_the_method": "as §1"}, "S. faecalis 4510": {"system": "S. faecalis 4510", "settings": "Enterococcus faecalis, 4510", "summary_of_the_method": "as §1"}, "S. aureus 39881": {"system": "S. aureus 39881", "settings": "Staphylococcus aureus, 39881", "summary_of_the_method": "as §1"}, "S. aureus 4-81": {"system": "S. aureus 4-81", "settings": "Staphylococcus aureus, 481", "summary_of_the_method": "as §1"}, "S. aureus (25923)": {"system": "S. aureus (25923)", "settings": "Staphylococcus aureus, ATCC25923", "summary_of_the_method": "as §1"}, "S. pyogenes 7948-15": {"system": "S. pyogenes 7948-15", "settings": "Streptococcus pyogenes, 794815", "summary_of_the_method": "as §1"}, "S. aureus Glorgio": {"system": "S. aureus Glorgio", "settings": "Staphylococcus aureus", "summary_of_the_method": "as §1"}, "S. aureus 41-81": {"system": "S. aureus 41-81", "settings": "Staphylococcus aureus, 4181", "summary_of_the_method": "as §1"}, "S. epidermidis (12228)": {"system": "S. epidermidis (12228)", "settings": "Staphylococcus epidermidis, ATCC12228", "summary_of_the_method": "as §1"}, "S. epidermidis (17917)": {"system": "S. epidermidis (17917)", "settings": "Staphylococcus epidermidis, ATCC17917", "summary_of_the_method": "as §1"}, "S. aureus S-500": {"system": "S. aureus S-500", "settings": "Staphylococcus aureus, S500", "summary_of_the_method": "as §1"}, "S. epidermidis 1-3-H": {"system": "S. epidermidis 1-3-H", "settings": "Staphylococcus epidermidis, 13H", "summary_of_the_method": "as §1"}, "S. aureus 34-81": {"system": "S. aureus 34-81", "settings": "Staphylococcus aureus, 3481", "summary_of_the_method": "as §1"}, "S. faecalis (11700)": {"system": "S. faecalis (11700)", "settings": "Enterococcus faecalis, ATCC11700", "summary_of_the_method": "as §1"}, "S. faecalis (8043)": {"system": "S. faecalis (8043)", "settings": "Enterococcus faecalis, ATCC8043", "summary_of_the_method": "as §1"}, "S. aureus S-234": {"system": "S. aureus S-234", "settings": "Staphylococcus aureus, S234", "summary_of_the_method": "as §1"}, "S. aureus 13-8-A": {"system": "S. aureus 13-8-A", "settings": "Staphylococcus aureus, 138A", "summary_of_the_method": "as §1"}, "S. aureus 24-81": {"system": "S. aureus 24-81", "settings": "Staphylococcus aureus, 2481", "summary_of_the_method": "as §1"}, "S. pneumoniae Type III": {"system": "S. pneumoniae Type III", "settings": "Streptococcus pneumoniae", "summary_of_the_method": "as §1"}, "S. aureus VA16951": {"system": "S. aureus VA16951", "settings": "Staphylococcus aureus, VA16951", "summary_of_the_method": "as §1"}}}
{"smiles": "CN[C@H](CC(C)C)C(=O)N[C@H]1C(=O)N[C@@H](CC(N)=O)C(=O)N[C@H]2C(=O)N[C@H]3C(=O)N[C@H](C(=O)N[C@H](C(=O)O)c4cc(O)cc(O)c4-c4cc3ccc4O)[C@H](O)c3ccc(c(Cl)c3)Oc3cc2cc(c3O[C@@H]2O[C@H](CO)[C@@H](O)[C@H](O)[C@H]2O[C@H]2C[C@](C)(N)[C@H](O)[C@H](C)O2)Oc2ccc(cc2Cl)[C@H]1O", "note": "[Vancomycin]", "values": [{"measurement": "MBC", "setting": "S. epidermidis 1-5-H", "value": 2, "unit": "µg/mL"}, {"measurement": "MIC", "setting": "S. epidermidis 1-5-H", "value": 2, "unit": "µg/mL"}, {"measurement": "MBC", "setting": "S. pyogenes (89)", "value": 16, "unit": "µg/mL"}, {"measurement": "MIC", "setting": "S. pyogenes (89)", "value": 16, "unit": "µg/mL"}, {"measurement": "MBC", "setting": "S. faecalis 4510", "value": "> 125", "unit": "µg/mL"}, {"measurement": "MIC", "setting": "S. faecalis 4510", "value": 2, "unit": "µg/mL"}, {"measurement": "MBC", "setting": "S. aureus 39881", "value": 1, "unit": "µg/mL"}, {"measurement": "MIC", "setting": "S. aureus 39881", "value": 1, "unit": "µg/mL"}, {"measurement": "MBC", "setting": "S. aureus 4-81", "value": 0.5, "unit": "µg/mL"}, {"measurement": "MIC", "setting": "S. aureus 4-81", "value": 0.5, "unit": "µg/mL"}, {"measurement": "MBC", "setting": "S. aureus (25923)", "value": 1, "unit": "µg/mL"}, {"measurement": "MIC", "setting": "S. aureus (25923)", "value": 1, "unit": "µg/mL"}, {"measurement": "MBC", "setting": "S. pyogenes 7948-15", "value": 16, "unit": "µg/mL"}, {"measurement": "MIC", "setting": "S. pyogenes 7948-15", "value": 16, "unit": "µg/mL"}, {"measurement": "MBC", "setting": "S. aureus Glorgio", "value": 1, "unit": "µg/mL"}, {"measurement": "MIC", "setting": "S. aureus Glorgio", "value": 1, "unit": "µg/mL"}, {"measurement": "MBC", "setting": "S. aureus 41-81", "value": 1, "unit": "µg/mL"}, {"measurement": "MIC", "setting": "S. aureus 41-81", "value": 1, "unit": "µg/mL"}, {"measurement": "MBC", "setting": "S. epidermidis (12228)", "value": 1, "unit": "µg/mL"}, {"measurement": "MIC", "setting": "S. epidermidis (12228)", "value": 1, "unit": "µg/mL"}, {"measurement": "MBC", "setting": "S. epidermidis (17917)", "value": 1, "unit": "µg/mL"}, {"measurement": "MIC", "setting": "S. epidermidis (17917)", "value": 1, "unit": "µg/mL"}, {"measurement": "MBC", "setting": "S. aureus S-500", "value": 1, "unit": "µg/mL"}, {"measurement": "MIC", "setting": "S. aureus S-500", "value": 1, "unit": "µg/mL"}, {"measurement": "MBC", "setting": "S. epidermidis 1-3-H", "value": 1, "unit": "µg/mL"}, {"measurement": "MIC", "setting": "S. epidermidis 1-3-H", "value": 1, "unit": "µg/mL"}, {"measurement": "MBC", "setting": "S. aureus 34-81", "value": 0.5, "unit": "µg/mL"}, {"measurement": "MIC", "setting": "S. aureus 34-81", "value": 0.5, "unit": "µg/mL"}, {"measurement": "MBC", "setting": "S. faecalis (11700)", "value": "> 125", "unit": "µg/mL"}, {"measurement": "MIC", "setting": "S. faecalis (11700)", "value": 1, "unit": "µg/mL"}, {"measurement": "MBC", "setting": "S. faecalis (8043)", "value": "> 125", "unit": "µg/mL"}, {"measurement": "MIC", "setting": "S. faecalis (8043)", "value": 1, "unit": "µg/mL"}, {"measurement": "MBC", "setting": "S. aureus S-234", "value": 1, "unit": "µg/mL"}, {"measurement": "MIC", "setting": "S. aureus S-234", "value": 1, "unit": "µg/mL"}, {"measurement": "MBC", "setting": "S. aureus 13-8-A", "value": 0.5, "unit": "µg/mL"}, {"measurement": "MIC", "setting": "S. aureus 13-8-A", "value": 0.5, "unit": "µg/mL"}, {"measurement": "MBC", "setting": "S. aureus 24-81", "value": 0.5, "unit": "µg/mL"}, {"measurement": "MIC", "setting": "S. aureus 24-81", "value": 0.5, "unit": "µg/mL"}, {"measurement": "MBC", "setting": "S. pneumoniae Type III", "value": 16, "unit": "µg/mL"}, {"measurement": "MIC", "setting": "S. pneumoniae Type III", "value": "≤ 0.06", "unit": "µg/mL"}, {"measurement": "MBC", "setting": "S. aureus VA16951", "value": 1, "unit": "µg/mL"}, {"measurement": "MIC", "setting": "S. aureus VA16951", "value": 1, "unit": "µg/mL"}]}
